Source: US12252488B2 (Nimbus Saturn, Inc., priority 2021, dated 2025)

These molecules were tested against T1, HPK1 (Homo sapiens, UniProt Q92918) (assay: HPK1 biochemical enzyme assay (microfluidic mobility shift assay)). Conditions: 1000 uM (1 mM) ATP; Caliper mobility shift; 1.5 nM HPK1; 30 min preincubation; read-out: HPK1 1000UMATP caliper IC50.
T1 construct: purchased Invitrogen
How it was run: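 Microfluidic mobility-shift readout with 1.5 nM HPK1 in pH 7.4 buffer; compounds (ten-point curves, top 3 μM final) preincubated 30 min with enzyme/substrate. Reaction started with 1 mM ATP and 1 μM substrate plus 5 mM MgCl2, run 60 min at RT. IC50 values binned into activity classes.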

T1 sequence (Q92918 whole entry): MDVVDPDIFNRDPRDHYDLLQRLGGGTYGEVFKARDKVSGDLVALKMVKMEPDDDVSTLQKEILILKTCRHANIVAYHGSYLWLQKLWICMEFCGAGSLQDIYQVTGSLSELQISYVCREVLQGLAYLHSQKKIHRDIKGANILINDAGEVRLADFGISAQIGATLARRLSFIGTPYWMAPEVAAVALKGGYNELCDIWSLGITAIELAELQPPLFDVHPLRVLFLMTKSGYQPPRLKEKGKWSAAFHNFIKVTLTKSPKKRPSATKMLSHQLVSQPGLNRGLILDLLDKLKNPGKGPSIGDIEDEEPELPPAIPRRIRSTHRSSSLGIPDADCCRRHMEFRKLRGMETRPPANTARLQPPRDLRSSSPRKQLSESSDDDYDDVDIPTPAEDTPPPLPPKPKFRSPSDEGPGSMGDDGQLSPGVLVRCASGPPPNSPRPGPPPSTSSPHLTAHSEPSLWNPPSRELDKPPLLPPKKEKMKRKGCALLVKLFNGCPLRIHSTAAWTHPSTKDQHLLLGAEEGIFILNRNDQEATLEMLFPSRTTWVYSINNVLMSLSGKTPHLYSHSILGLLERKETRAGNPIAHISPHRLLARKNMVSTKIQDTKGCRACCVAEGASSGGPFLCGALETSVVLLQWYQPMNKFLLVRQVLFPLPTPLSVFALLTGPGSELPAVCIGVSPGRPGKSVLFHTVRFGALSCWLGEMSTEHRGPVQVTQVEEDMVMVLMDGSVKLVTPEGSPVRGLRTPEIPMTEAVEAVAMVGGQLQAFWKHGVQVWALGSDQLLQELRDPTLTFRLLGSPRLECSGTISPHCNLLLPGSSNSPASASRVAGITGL

IC50	SMILES
100 to 1000 nM	O=C(c1ccc(-c2cc(Nc3ccc(N4CCC(O)CC4)cn3)c3c(=O)[nH]ccc3n2)c(F)c1)N1CCNCC1 [I-119, 2-[2-fluoro-4-(piperazine-1-carbonyl)phenyl]-4-[[5-(4-hydroxy-1-piperidyl)-2-pyridyl]amino]-6H-1,6-naphthyridin-5-one]
100 to 1000 nM	O=C(c1ccc(-c2cc(Nc3ccc(N4CCC(O)CC4)cn3)c3c(=O)[nH]ccc3n2)c(F)c1)N1CCOCC1 [I-120]
≤ 100 nM	CC(C)c1ccc(F)c(-c2cc(Nc3ccc(N4CCC5(CCOCC5)CC4)cn3)c3c(=O)[nH]ccc3n2)c1 [I-121, 2-(2-fluoro-5-isopropyl-phenyl)-4-[[5-(3-oxa-9-azaspiro [5.5]undecan-9-yl)-2-pyridyl]amino]-6H-1,6-naphthyridin-5-one]
100 to 1000 nM	CC(C)c1ccc(F)c(-c2cc(Nc3ccc(N4[C@H](C)COC[C@H]4C)cn3)c3c(=O)[nH]ccc3n2)c1 [I-122, 4-[[5-[(3R,5R)-3,5-dimethyl-morpholin-4-yl]-2-pyridyl]amino]-2-(2-fluoro-5-isopropyl-phenyl)-6H-1,6-naphthyridin-5-one]
≤ 100 nM	CC(O)(c1ccc(F)c(-c2cc(Nc3ccc(N4CCC(O)CC4)cn3)c3c(=O)[nH]ccc3n2)c1)C(F)(F)F (stereo not shown) [I-123, 2-[2-fluoro-5-(2,2,2-trifluoro-1-hydroxy-1-methyl-ethyl)phenyl]-4-[[5-(4-hydroxy-1-piperidyl)-2-pyridyl]amino]-6H-1,6-naphthyridin-5-one]
100 to 1000 nM	O=C(c1ccc(-c2cc(Nc3ccc(N4CCC(O)CC4)cn3)c3c(=O)[nH]ccc3n2)c(F)c1)N1CC2CCC1CC2 [I-124, 2-[4-(3-azabicyclo [2.2.2]octane-3-carbonyl)-2-fluoro-phenyl]-4-[[5-(4-hydroxy-1-piperidyl)-2-pyridyl]amino]-6H-1,6-naphthyridin-5-one]
≤ 100 nM	COC(=O)c1ccc(-c2cc(Nc3ccc(N4CCC(O)CC4)cn3)c3c(=O)[nH]ccc3n2)c(F)c1 [I-125, Methyl 3-fluoro-4-[4-[[5-(4-hydroxy-1-piperidyl)-2-pyridyl]amino]-5-oxo-6H-1,6-naphthyridin-2-yl]benzoate]
100 to 1000 nM	O=C(c1ccc(-c2cc(Nc3ccc(N4CCC(O)CC4)cn3)c3c(=O)[nH]ccc3n2)c(F)c1)N1CCC1 [I-126, 2-[4-(azetidine-1-carbonyl)-2-fluoro-phenyl]-4-[[5-(4-hydroxy-1-piperidyl)-2-pyridyl]amino]-6H-1,6-naphthyridin-5-one]
100 to 1000 nM	O=c1[nH]ccc2nc(-c3ccc(CN4CCCCC4)cc3F)cc(Nc3ccc(N4CCC(O)CC4)cn3)c12 [I-127]
100 to 1000 nM	CCNC(=O)C(C)(C)c1ccc(Nc2cc(-c3cc(C(C)C)ccc3F)nc3cc[nH]c(=O)c23)nc1 [I-128, N-ethyl-2-[6-[[2-(2-fluoro-5-isopropyl-phenyl)-5-oxo-6H-1,6-naphthyridin-4-yl]amino]-3-pyridyl]-2-methyl-propanamide]
100 to 1000 nM	CC(C)c1ccc(F)c(-c2cc(Nc3ccc(N4[C@@H](C)COC[C@@H]4C)cn3)c3c(=O)[nH]ccc3n2)c1 [I-129, 4-[[5-[(3S,5S)-3,5-dimethyl-morpholin-4-yl]-2-pyridyl]amino]-2-(2-fluoro-5-isopropyl-phenyl)-6H-1,6-naphthyridin-5-one]
≤ 100 nM	CC1CCCCN1C(=O)c1ccc(-c2cc(Nc3ccc(N4CCC(O)CC4)cn3)c3c(=O)[nH]ccc3n2)c(F)c1 (stereo not shown) [I-130, 2-[2-fluoro-4-(2-methyl-piperidine-1-carbonyl)phenyl]-4-[[5-(4-hydroxy-1-piperidyl)-2-pyridyl]amino]-6H-1,6-naphthyridin-5-one]
100 to 1000 nM	CN1CCN(C(=O)c2ccc(-c3cc(Nc4ccc(N5CCC(O)CC5)cn4)c4c(=O)[nH]ccc4n3)c(F)c2)CC1 [I-131, 2-[2-fluoro-4-(4-methyl-piperazine-1-carbonyl)phenyl]-4-[[5-(4-hydroxy-1-piperidyl)-2-pyridyl]amino]-6H-1,6-naphthyridin-5-one]
100 to 1000 nM	N#CC1CCN(C(=O)c2ccc(-c3cc(Nc4ccc(N5CCC(O)CC5)cn4)c4c(=O)[nH]ccc4n3)c(F)c2)CC1 [I-132, 1-[3-fluoro-4-[4-[[5-(4-hydroxy-1-piperidyl)-2-pyridyl]amino]-5-oxo-6H-1,6-naphthyridin-2-yl]benzoyl] piperidine-4-carbonitrile]
≤ 100 nM	COC1CCCN(C(=O)c2ccc(-c3cc(Nc4ccc(N5CCC(O)CC5)cn4)c4c(=O)[nH]ccc4n3)c(F)c2)C1 (stereo not shown) [I-133, 2-[2-fluoro-4-(3-methoxy-piperidine-1-carbonyl)phenyl]-4-[[5-(4-hydroxy-1-piperidyl)-2-pyridyl]amino]-6H-1,6-naphthyridin-5-one]
≤ 100 nM	O=C(O)c1ccc(-c2cc(Nc3ccc(N4CCC(O)CC4)cn3)c3c(=O)[nH]ccc3n2)c(F)c1 [I-134, 3-Fluoro-4-[4-[[5-(4-hydroxy-1-piperidyl)-2-pyridyl]amino]-5-oxo-6H-1,6-naphthyridin-2-yl]benzoic Acid]

IC50	SMILES
≤ 100 nM	CC1CCCN(C(=O)c2ccc(-c3cc(Nc4ccc(N5CCC(O)CC5)cn4)c4c(=O)[nH]ccc4n3)c(F)c2)C1 (stereo not shown) [I-135, 2-[2-fluoro-4-(3-methyl-piperidine-1-carbonyl)phenyl]-4-[[5-(4-hydroxy-1-piperidyl)-2-pyridyl]amino]-6H-1,6-naphthyridin-5-one]
≤ 100 nM	COC1CCN(C(=O)c2ccc(-c3cc(Nc4ccc(N5CCC(O)CC5)cn4)c4c(=O)[nH]ccc4n3)c(F)c2)CC1 [I-136, 2-[2-fluoro-4-(4-methoxy-piperidine-1-carbonyl)phenyl]-4-[[5-(4-hydroxy-1-piperidyl)-2-pyridyl]amino]-6H-1,6-naphthyridin-5-one]
≤ 100 nM	O=C(c1ccc(-c2cc(Nc3ccc(N4CCC(O)CC4)cn3)c3c(=O)[nH]ccc3n2)c(F)c1)N1CC2CCC1C2 (stereo not shown) [I-137, 2-[4-(3-azabicyclo [2.2.1]heptane-3-carbonyl) 2-fluoro-phenyl]-4-[[5-(4-hydroxy-1-piperidyl)-2-pyridyl]amino]-6H-1,6-naphthyridin-5-one]
100 to 1000 nM	O=C(c1ccc(-c2cc(Nc3ccc(N4CCC(O)CC4)cn3)c3c(=O)[nH]ccc3n2)c(F)c1)N1CC2C(C1)C2(F)F (stereo not shown) [I-138, 2-[4-(6,6-difluoro-3-azabicyclo [3.1.0]hexane-3-carbonyl)-2-fluoro-phenyl]-4-[[5-(4-hydroxy-1-piperidyl)-2-pyridyl]amino]-6H-1,6-naphthyridin-5-one]
≤ 100 nM	O=C(NC1CCCCC1)c1ccc(-c2cc(Nc3ccc(N4CCC(O)CC4)cn3)c3c(=O)[nH]ccc3n2)c(F)c1 [I-139, N-cyclohexyl-3-fluoro-4-[4-[[5-(4-hydroxy-1-piperidyl)-2-pyridyl]amino]-5-oxo-6H-1,6-naphthyridin-2-yl] benzamide]
≤ 100 nM	O=C(c1ccc(-c2cc(Nc3ccc(N4CCC(O)CC4)cn3)c3c(=O)[nH]ccc3n2)c(F)c1)N1CCC(O)CC1 [I-140, 2-[2-fluoro-4-(4-hydroxy-piperidine-1-carbonyl)phenyl]-4-[[5-(4-hydroxy-1-piperidyl)-2-pyridyl]amino]-6H-1,6-naphthyridin-5-one]
> 1000 nM	O=C(c1ccc(-c2cc(Nc3ccc(N4CCC(O)CC4)cn3)c3c(=O)[nH]ccc3n2)c(F)c1)N1CCCCC1CO (stereo not shown) [I-141, 2-[2-fluoro-4-[2-(hydroxy-methyl)piperidine-1-carbonyl]phenyl]-4-[[5-(4-hydroxy-1-piperidyl)-2-pyridyl]amino]-6H-1,6-naphthyridin-5-one]
≤ 100 nM	O=C(c1ccc(-c2cc(Nc3ccc(N4CCC(O)CC4)cn3)c3c(=O)[nH]ccc3n2)c(F)c1)N1CC2CCC(C1)O2 [I-142, 2-[2-fluoro-4-(8-oxa-3-azabicyclo [3.2.1]octane-3-carbonyl)phenyl]-4-[[5-(4-hydroxy-1-piperidyl)-2-pyridyl]amino]-6H-naphthyridin-5-one]
> 1000 nM	CN(C(=O)c1ccc(-c2cc(Nc3ccc(N4CCC(O)CC4)cn3)c3c(=O)[nH]ccc3n2)c(F)c1)C1CCCCC1 [I-143, N-cyclohexyl-3-fluoro-4-[4-[[5-(4-hydroxy-1-piperidyl)-2-pyridyl]amino]-5-oxo-6H-1,6-naphthyridin-2-yl]-N-methyl-benzamide]
> 1000 nM	O=c1[nH]ccc2nc(N3CCC3)cc(Nc3ccc(N4CCC(O)CC4)cn3)c12 [I-144, 2-(azetidin-1-yl)-4-[[5-(4-hydroxy-1-piperidyl)-2-pyridyl]amino]-6H-1,6-naphthyridin-5-one]
> 1000 nM	O=C(c1ccc(-c2cc(Nc3ccc(N4CCC(O)CC4)cn3)c3c(=O)[nH]ccc3n2)c(F)c1)N1CCCC(O)C1 (stereo not shown) [I-145, 2-[2-fluoro-4-(3-hydroxy-piperidine-1-carbonyl)phenyl]-4-[[5-(4-hydroxy-1-piperidyl)-2-pyridyl]amino]-6H-1,6-naphthyridin-5-one]
100 to 1000 nM	Cc1c[nH]c(=O)c2c(Nc3ccc(N4CCC(O)CC4)cn3)cc(-c3ccc(C(=O)N4CCCCC4)cc3F)nc12 [I-146, 2-[2-fluoro-4-(piperidine-1-carbonyl)phenyl]-4-[[5-(4-hydroxy-1-piperidyl)-2-pyridyl]amino]-8-methyl-6H-1,6-naphthyridin-5-one]
100 to 1000 nM	O=C(c1ccc(-c2cc(Nc3ccc(N4CCC(O)CC4)cn3)c3c(=O)[nH]ccc3n2)c(F)c1)N1CCCC1CO (stereo not shown) [I-147, 2-[2-fluoro-4-[2-(hydroxy-methyl)pyrrolidine-1-carbonyl]phenyl]-4-[[5-(4-hydroxy-1-piperidyl)-2-pyridyl]amino]-6H-1,6-naphthyridin-5-one]
> 1000 nM	O=C(c1ccc(-c2cc(Nc3ccc(N4CCC5(CCOCC5)CC4)cn3)c3c(=O)[nH]ccc3n2)c(F)c1)N1CCCCC1 [I-148, 2-[2-fluoro-4-(piperidine-1-carbonyl)phenyl]-4-[[5-(3-oxa-9-azaspiro [5.5]undecan-9-yl)-2-pyridyl]amino]-6H-naphthyridin-5-one]
100 to 1000 nM	CC(C)(C#N)c1ccc(-c2cc(Nc3ccc(N4CCC(O)CC4)cn3)c3c(=O)[nH]ccc3n2)c(F)c1 [I-149, 2-[3-fluoro-4-[4-[[5-(4-hydroxy-1-piperidyl)-2-pyridyl]amino]-5-oxo-6H-1,6-naphthyridin-2-yl]phenyl]-2-methyl-propane-nitrile]
